Measured values reported in BindingDB's records for doi:10.7270/Q29C6VXX (Burnham Center For Chemical Genomics, 2011).

Target: T1, Apoptotic protease-activating factor 1 (Homo sapiens, UniProt O14727)
T1 sequence (O14727 whole entry): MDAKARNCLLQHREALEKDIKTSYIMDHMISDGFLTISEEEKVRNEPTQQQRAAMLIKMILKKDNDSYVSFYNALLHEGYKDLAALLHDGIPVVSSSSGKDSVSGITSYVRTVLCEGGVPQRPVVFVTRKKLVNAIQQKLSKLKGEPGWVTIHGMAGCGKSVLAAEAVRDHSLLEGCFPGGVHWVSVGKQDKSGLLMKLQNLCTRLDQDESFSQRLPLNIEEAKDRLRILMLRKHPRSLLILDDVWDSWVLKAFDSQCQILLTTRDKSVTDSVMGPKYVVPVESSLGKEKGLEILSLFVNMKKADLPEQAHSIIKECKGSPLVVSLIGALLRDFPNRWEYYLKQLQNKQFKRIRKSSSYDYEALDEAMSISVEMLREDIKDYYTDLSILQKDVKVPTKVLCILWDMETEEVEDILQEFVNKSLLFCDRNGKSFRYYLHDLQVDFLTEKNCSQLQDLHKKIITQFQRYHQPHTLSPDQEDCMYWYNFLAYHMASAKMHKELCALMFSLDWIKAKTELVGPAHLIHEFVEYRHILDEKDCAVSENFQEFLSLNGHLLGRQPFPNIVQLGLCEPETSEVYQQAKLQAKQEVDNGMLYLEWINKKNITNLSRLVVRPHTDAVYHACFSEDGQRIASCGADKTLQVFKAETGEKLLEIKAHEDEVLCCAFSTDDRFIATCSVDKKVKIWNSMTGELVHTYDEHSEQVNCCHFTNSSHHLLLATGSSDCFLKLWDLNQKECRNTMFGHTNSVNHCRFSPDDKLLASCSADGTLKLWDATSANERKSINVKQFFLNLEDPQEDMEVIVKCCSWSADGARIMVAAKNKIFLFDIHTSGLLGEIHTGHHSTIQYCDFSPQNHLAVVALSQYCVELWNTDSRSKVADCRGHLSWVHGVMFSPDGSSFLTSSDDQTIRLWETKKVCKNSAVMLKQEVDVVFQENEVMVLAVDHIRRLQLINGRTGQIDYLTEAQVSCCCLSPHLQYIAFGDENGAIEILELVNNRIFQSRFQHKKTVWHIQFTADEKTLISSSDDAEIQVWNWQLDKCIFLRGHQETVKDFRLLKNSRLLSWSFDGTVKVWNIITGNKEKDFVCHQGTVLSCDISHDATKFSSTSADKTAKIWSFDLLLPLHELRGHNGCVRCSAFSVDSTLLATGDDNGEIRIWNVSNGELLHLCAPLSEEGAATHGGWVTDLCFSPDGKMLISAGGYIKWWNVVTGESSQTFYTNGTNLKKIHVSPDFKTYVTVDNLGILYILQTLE
Assay: activation of Apaf-1 mediated apoptosis – fluorescent, uHTS hits, dose response (AID 588554)

Structure (SMILES)	EC50 [µM]
CCOc1ccc(C(=O)CC=Nc2ccc(S(=O)(=O)NC(=N)N)cc2)cc1 [2-[4-[[(E)-3-(4-ethoxyphenyl)-3-oxidanylidene-prop-1-enyl]amino]phenyl]sulfonylguanidine]	6.28
CSc1ccc(CN=Nc2ccc(S(=O)(=O)Nc3ccccc3C(=O)O)cc2[N+](=O)[O-])cc1 [MLS002245633]	8.23
O=C(NN=CC1C=C(Cl)C=C([N+](=O)[O-])C1=O)NC12CC3CC(CC(C3)C1)C2 (stereo not drawn) [1-(1-adamantyl)-3-[[(E)-(3-chloro-5-nitro-6-oxo-1-cyclohexa-2,4-dienylidene)methyl]amino]urea]	6.87
